Assay results reported in US20260374773A1, “MULTI-CYCLIC IRAK AND FLT3 INHIBITING COMPOUNDS AND USES THEREOF” (CHILDREN'S HOSPITAL MEDICAL CENTER, priority 2022, published 2026).

How the values were obtained:
FLT3 = target: T1, FLT3 (Homo sapiens, UniProt P36888); experiment: RBC HotSpot kinase inhibition assay, FLT3; format: biochemical; details: isolated kinase, 33P-ATP, 2 h
T1 sequence (P36888 27-993): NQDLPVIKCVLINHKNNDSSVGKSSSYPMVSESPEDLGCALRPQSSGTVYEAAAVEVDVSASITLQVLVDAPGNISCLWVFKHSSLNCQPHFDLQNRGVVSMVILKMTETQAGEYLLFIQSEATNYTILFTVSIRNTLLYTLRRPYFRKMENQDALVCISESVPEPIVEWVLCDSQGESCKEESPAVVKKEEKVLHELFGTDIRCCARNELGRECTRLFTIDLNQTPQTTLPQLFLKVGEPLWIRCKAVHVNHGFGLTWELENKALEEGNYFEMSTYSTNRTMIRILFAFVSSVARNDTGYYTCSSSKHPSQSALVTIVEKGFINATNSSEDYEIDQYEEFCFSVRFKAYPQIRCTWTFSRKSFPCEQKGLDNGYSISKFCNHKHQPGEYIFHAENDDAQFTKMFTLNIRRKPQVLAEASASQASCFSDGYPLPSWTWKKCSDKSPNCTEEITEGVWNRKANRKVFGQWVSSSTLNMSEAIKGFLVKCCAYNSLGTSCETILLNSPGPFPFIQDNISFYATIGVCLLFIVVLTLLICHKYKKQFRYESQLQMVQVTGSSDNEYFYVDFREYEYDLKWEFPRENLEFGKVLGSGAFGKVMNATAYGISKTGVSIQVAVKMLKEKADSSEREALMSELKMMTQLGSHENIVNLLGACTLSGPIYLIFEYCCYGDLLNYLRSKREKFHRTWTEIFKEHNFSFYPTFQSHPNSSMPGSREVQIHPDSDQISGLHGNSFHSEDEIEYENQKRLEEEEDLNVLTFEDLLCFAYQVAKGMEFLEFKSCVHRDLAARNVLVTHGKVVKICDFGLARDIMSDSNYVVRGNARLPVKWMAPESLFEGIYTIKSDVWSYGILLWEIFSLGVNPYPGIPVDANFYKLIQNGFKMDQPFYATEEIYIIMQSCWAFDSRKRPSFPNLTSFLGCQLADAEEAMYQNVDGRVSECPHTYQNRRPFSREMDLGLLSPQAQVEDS
Outline: (§1)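 Isolated kinases, possibly truncated or lacking regulatory receptor domains, in 20 mM Hepes pH 7.5, 10 mM MgCl2, 1 mM EGTA, 0.01% Brij35, 2 mM DTT, 1% DMSO with substrate and cofactors. Compound preincubated 20 min, then ^33P-ATP added; 2 h at room temperature, read by P81 filter binding.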

IRAK4 = target: T2, IRAK4 (Homo sapiens, UniProt Q9NWZ3); experiment: RBC HotSpot kinase inhibition assay, IRAK4; format: biochemical; details: isolated kinase, 33P-ATP, 2 h
T2 sequence (Q9NWZ3 1-460): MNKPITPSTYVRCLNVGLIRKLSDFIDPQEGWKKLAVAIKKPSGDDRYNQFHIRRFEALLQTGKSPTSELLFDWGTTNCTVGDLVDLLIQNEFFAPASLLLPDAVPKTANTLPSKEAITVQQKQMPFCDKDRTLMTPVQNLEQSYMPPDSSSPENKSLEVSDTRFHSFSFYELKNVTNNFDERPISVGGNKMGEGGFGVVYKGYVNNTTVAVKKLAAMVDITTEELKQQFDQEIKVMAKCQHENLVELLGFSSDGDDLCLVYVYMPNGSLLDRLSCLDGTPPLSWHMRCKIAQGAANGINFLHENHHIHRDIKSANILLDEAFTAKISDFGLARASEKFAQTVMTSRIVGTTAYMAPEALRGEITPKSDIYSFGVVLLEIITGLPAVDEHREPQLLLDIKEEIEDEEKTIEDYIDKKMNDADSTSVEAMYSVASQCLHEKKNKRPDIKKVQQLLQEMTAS
Outline: as §1

Structure (SMILES) | IC50 (FLT3; Table 17) [pM] | IC50 (IRAK4; Table 17) [pM] | IC50 (FLT3; Table 11) [pM] | IC50 (IRAK4; Table 11) [pM]
COc1cn2ncc(-c3nc(N[C@H]4CNC[C@@H]4F)ncc3F)c2nc1C1CC1 [Compound 13a, 4-(5-cyclopropyl-6-methoxypyrazolo[1,5-a]pyrimidin-3-yl)-5-fluoro-N-((3S,4S)-4-fluoropyrrolidin-3-yl)pyrimidin-2-amine] | < 500 | < 500 |  | 
COc1cn2ncc(-c3nc(N[C@@H]4CCCNC4)ncc3F)c2nc1C1CC1 [Compound 14a, (R)-4-(5-cyclopropyl-6-methoxypyrazolo[1,5-a]pyrimidin-3-yl)-5-fluoro-N-(piperidin-3-yl)pyrimidin-2-amine] | < 500 | 600 |  | 
COc1cn2ncc(-c3nc(N[C@H]4CNCC[C@@H]4F)ncc3F)c2nc1C1CC1 [Compound 15a, 4-(5-cyclopropyl-6-methoxypyrazolo[1,5-a]pyrimidin-3-yl)-5-fluoro-N-((3S,4S)-4-fluoropiperidin-3-yl)pyrimidin-2-amine] | 700 | 700 |  | 
COc1cn2ncc(-c3cccc(N[C@H]4CNC[C@@H]4F)n3)c2nc1C1CC1 [Compound 19, 6-(5-cyclopropyl-6-methoxypyrazolo[1,5-a]pyrimidin-3-yl)-N-((3S,4S)-4-fluoropyrrolidin-3-yl)pyridin-2-amine] |  |  | < 500 | 2000

The next lines start with the values.

IC50 (FLT3; Table 17) [pM] | IC50 (IRAK4; Table 17) [pM] | IC50 (FLT3; Table 11) [pM] | IC50 (IRAK4; Table 11) [pM] | Structure (SMILES)
 |  | < 500 | 5000 | COc1cn2ncc(-c3cccc(N[C@@H]4CCCNC4)n3)c2nc1C1CC1 [Compound 20, (R)-6-(5-cyclopropyl-6-methoxypyrazolo[1,5-a]pyrimidin-3-yl)-N-(piperidin-3-yl)pyridin-2-amine]
 |  | < 500 | 2000 | COc1cn2ncc(-c3cccc(N[C@H]4CNCC[C@@H]4F)n3)c2nc1C1CC1 [Compound 21, 6-(5-cyclopropyl-6-methoxypyrazolo[1,5-a]pyrimidin-3-yl)-N-((3S,4S)-4-fluoropiperidin-3-yl)pyridin-2-amine]
 |  | < 500 | < 500 | COc1cn2ncc(-c3nc(N[C@H]4CNCC[C@@H]4F)c(F)cc3F)c2nc1C1CC1 [Compound 22, 6-(5-cyclopropyl-6-methoxypyrazolo[1,5-a]pyrimidin-3-yl)-3,5-difluoro-N-((3S,4S)-4-fluoropiperidin-3-yl)pyridin-2-amine]
 |  | < 500 | < 500 | COc1cn2ncc(-c3nc(N[C@H]4CNC[C@@H]4F)c(F)cc3F)c2nc1C1CC1 [Compound 24, 6-(5-cyclopropyl-6-methoxypyrazolo[1,5-a]pyrimidin-3-yl)-3,5-difluoro-N-((3S,4S)-4-fluoropyrrolidin-3-yl)pyridin-2-amine]
